In test [1] the test system is NPT. Type of test: biochemical, Clostridium perfringens ATCC 21510.
The subject of test [2] is granulation tissue in P.V.H.-sponge. On the set-up: species or system rats (Wistar strain, male). As to conditions: rat, in vivo.
The next test has as its system 5'-nucleotidase. Briefly: Effects of metal ions and other chemical agents on nucleotidase activity. Type of test: biochemical.
The test system of test [3] is NPT. It is filed as biochemical, Clostridium perfringens ATCC 21510. This is another data set of the same source.
A further test deals with epidermis. As to conditions: literature; cited from earlier work.
The subject of a further test is epidermis (dorsal skin). Nature of the test: Experiment 9: epidermization effect on dermatome-peeled dorsal skin. It is filed as in vivo, rabbit. To be noted: further examination.
Test [4] concerns collagen in P.V.H.-sponge. Briefly: Experiment 6: weight of collagen (hydroxyproline) in the buried sponge. As to conditions: for Hydroxyproline: n = 8; for Hydroxyproline, % of control: control = 100%. It is filed as in vivo, rats.

The source of these data is patent US4330527A, “Wound treatment agent” (priority 1979, dated 1982).

Entries after “also recorded” stand apart in the source; their conditions may differ.

Regarding `O=P(O)(O)OC[C@H]1OC(O)[C@H](O)[C@@H](O)[C@@H]1O` (some centres unmarked) [glucose-6-phosphate], in the test with NPT [1], the “action as phosphate donor” value was “not observed”.
With `O=c1ccn([C@@H]2O[C@H](CO)[C@@H](O)[C@H]2O)c(=O)[nH]1` [uridine], in the test on NPT [1], the “action as phosphate acceptor” value is “lowest activity as the phosphate acceptor”.
Turning to `Nc1ncnc2c1ncn2[C@@H]1O[C@H](COP(=O)(O)OP(=O)(O)OP(=O)(O)O)[C@@H](O)[C@H]1O` [adenosine triphosphate], in the test with NPT [1], the “action as phosphate donor” value is “not observed”.
As to `CC(=O)OCC(=O)[C@@]1(O)CC[C@H]2[C@@H]3CCC4=CC(=O)C=C[C@]4(C)[C@H]3[C@@H](O)C[C@@]21C` [Prednisolone acetate], in test [2], the “(1) Wet weight” value is recorded as 225 ± 58.9 mg; the “(1)-(2) Liquid content” value amounted to 167.4 ± 52.2 mg; the “(2) - sponge weight, Solid content” value was found to be 22.6 ± 9.6 mg; the “(2) Dry weight” value stood at 57.8 ± 9.9 mg. Besides, in test [2], the “Dry weight, %” value is 91.2%; the “Liquid content, %” value is listed as 68.4%; the “Solid content, %” value turned out to be 80.7%; the “Wet weight, %” value turned out to be 73.0%. The “effect on weights / newly grown granulation tissue (in words)” value in test [2] is “the dry weight, wet weight, quantity of exudate and weight of newly grown granulation tissue all fall below those with the control”.
With `O=C(O)c1cc[c]([Hg][Cl])cc1` [p-chloromercuribenzoic acid], in the test with 5'-nucleotidase, the “effect on nucleotidase activity” value is “neither of them are inhibited”. In addition, in the test with NPT [3], the “effect on NPT activity” value was “neither of them are inhibited”.
Take `O=P(O)(O)OCC(O)CO` (stereo not drawn) [α-glycerophosphate]: the “action as phosphate donor” value in the test on NPT [1] is listed as “not observed”.
In the case of vitamin A, the “effect on skin tissue / DNA synthesis in epidermis” value in the test on epidermis was “stimulates synthesis of DNA in the epidermis; also recorded: affect the growth and differentiation of the skin tissue”.
`Nc1ncnc2c1ncn2[C@H]1C[C@H](O)[C@@H](COP(=O)(O)OP(=O)(O)OP(=O)(O)O)O1` [deoxyadenosine triphosphate]: the “action as phosphate donor” value in the test on NPT [1] is listed as “not observed”.
Take `CN(CC(=O)O)C(=N)NP(=O)(O)O` [creatine phosphate]: in the test on NPT [1], the “action as phosphate donor” value is “not observed”.
On to `Nc1ccn([C@H]2C[C@H](O)[C@@H](CO)O2)c(=O)n1` [deoxycytidine], for which the “action as phosphate acceptor” value in the test with NPT [1] is listed as “phosphate acceptor”.
As to 3-phosphoglycerophosphate, the “action as phosphate donor” value in the test on NPT [1] was “not observed”.
As to `O=c1ccn([C@H]2C[C@H](O)[C@@H](CO)O2)c(=O)[nH]1` [deoxyuridine], in the test on NPT [1], the “action as phosphate acceptor” value was “phosphate acceptor”.
As for `[O]=[Zn]` [zinc oxide], in the test with epidermis (dorsal skin), the “capability of epidermization (in words)” value is “synergistic effect with GF-70 to stimulate the epidermization”.
As for `Nc1ccn([C@@H]2O[C@H](CO)[C@@H](O)[C@H]2O)c(=O)n1` [cytidine], the “action as phosphate acceptor” value in the test with NPT [1] is listed as “phosphate acceptor”.
For `Cc1cn([C@H]2C[C@H](O)[C@@H](CO)O2)c(=O)[nH]c1=O` [thymidine], in the test on NPT [1], the “action as phosphate acceptor” value was “phosphate acceptor”.

B1: Albumin: egg albumin as the control (protein, UniProt P01012 2-386, looked up)
Ovalbumin: GSIGAASMEFCFDVFKELKVHHANENIFYCPIAIMSALAMVYLGAKDSTRTQINKVVRFDKLPGFGDSIEAQCGTSVNVHSSLRDILNQITKPNDVYSFSLASRLYAEERYPILPEYLQCVKELYRGGLEPINFQTAADQARELINSWVESQTNGIIRNVLQPSSVDSQTAMVLVNAIVFKGLWEKAFKDEDTQAMPFRVTEQESKPVQMMYQIGLFRVASMASEKMKILELPFASGTMSMLVLLPDEVSGLEQLESIINFEKLTEWTSSNVMEERKIKVYLPRMKMEEKYNLTSVLMAMGITDVFSSSANLSGISSAESLKISQAVHAAHAEINEAGREVVGSAEAGVDAASVSEEFRADHPFLFCIKHIATNAVLFFGRCVSP
For B1, in test [4] (4th and 7th days, vs control), the “weight of collagen (in words)” value is listed as “no significant difference”. Further, in test [4] (4 days after burying), the Hydroxyproline was 132.3 ± 18.0 μg/sponge and the “Hydroxyproline, % of control” value was determined as 105%. Besides, in test [4] (7 days after burying), the Hydroxyproline is recorded as 331.7 ± 18.8 μg/sponge and the “Hydroxyproline, % of control” value stood at 146%.
